# Test results from patent publication US20180125796A1, “TREATMENT OF MYCOBACTERIAL INFECTION” (priority 2015, published 2018).
# Assays:
# [1] = test system: mCherry-expressing M. bovis BCG; type: cell-based
# [2] = test system: ER/neutral Ca^2+ store; test: Cytosolic Ca^2+ / ER Ca^2+ store content probed with ionomycin; type: cell-based
# [3] = cited from earlier work; for neurological side effects: adult mice, Andersson et al. 2004; for CNS penetration: mouse, in vivo
# [4] = mouse models of GSL storage diseases; cited from earlier work
# [5] = test system: total ganglioside and GM1 content; conditions: Kasperzyk et al. 2005; cited from earlier work
# [6] = test system: GSL biosynthesis; conditions: cited from earlier work
# [7] = test system: M. smegmatis; test: Clearance of M. smegmatis in primary human macrophages; type: cell-based, Mycobacterium smegmatis; conditions: primary human macrophages treated with U18666A; FIG. 14
# [8] = test system: M. smegmatis; test: Clearance of M. smegmatis in wild-type mouse macrophages; type: cell-based, Mycobacterium smegmatis; conditions: U18666A-treated wild-type mouse macrophages; FIG. 13
# [9] = test system: M. smegmatis; test: Clearance of M. smegmatis in RAW 246.7 cells; type: cell-based, Mycobacterium smegmatis; conditions: RAW 246.7 cells incubated with U18666A (1 μg/ml, 48 hours) prior to infection; relative to untreated cells; FIG. 12
# [10] = test system: sarco-endoplasmic reticulum Ca^2+-ATPase (SERCA); conditions: Bilmen et al. 2001; cited from earlier work
# [11] = test system: BCG; type: cell-based, M. bovis BCG
# [12] = test system: GSL levels; conditions: mice; Platt 1997; cited from earlier work
# [13] = test system: lysosomal expansion/storage; test: Lysotracker fluorescence (lysosomal expansion/storage); type: cell-based; conditions: FIG. 6B
# Experimental: Cells were live stained with 50 nM Lysotracker green (Molecular Probes) in PBS at room temperature for 30 min prior to washing.
# [14] = test system: NPC phenotypes; type: cell-based
# [15] = test system: GSL; type: cell-based
# [16] = test system: LE/Lys Ca^2+; type: cell-based
# [17] = test system: NPC1; test: TDM on bone marrow-derived macrophages from NPC1 heterozygous mice; type: cell-based, mouse
compound,measurement,setting,value
"OC[C@H]1O[C@@H]2O[C@H]3[C@H](O)[C@@H](O)[C@@H](O[C@H]4[C@H](O)[C@@H](O)[C@@H](O[C@H]5[C@H](O)[C@@H](O)[C@@H](O[C@H]6[C@H](O)[C@@H](O)[C@@H](O[C@H]7[C@H](O)[C@@H](O)[C@@H](O[C@H]8[C@H](O)[C@@H](O)[C@@H](O[C@H]1[C@H](O)[C@H]2O)O[C@@H]8CO)O[C@@H]7CO)O[C@@H]6CO)O[C@@H]5CO)O[C@@H]4CO)O[C@@H]3CO [3-cyclodextrin, β-cyclodextrin]","mycobacterial clearance, agent alone",[1],neither of these molecules alone promoted mycobacterial clearance
COc1ccc(/C=C/C(=O)C(C)(C)C(=O)/C=C/c2ccc(OC)c(OC)c2)cc1OC [FLLL31],BCG clearance,[1],had no effect
same,effect on cytosolic Ca^2+ levels,[2],has no effect on cytosolic Ca^2+ levels
"CCCCN1C[C@H](O)[C@@H](O)[C@@H](O)[C@H]1CO [NB-DGJ, N-butyldeoxygalactonojirimycin]",neurological side effects,[3],not to cause neurological side effects
same,CNS penetration,[3],penetrate the CNS
same,tolerability,[4],very well tolerated
same,total ganglioside and GM1 content in cerebrum-brainstem,[5],marked reduction
same,inhibition of GSL biosynthesis relative to NB-DNJ,[6],comparably to NB-DNJ
CCN(CC)CCO[C@H]1CC[C@@]2(C)C(=CC[C@@H]3[C@@H]2CC[C@]2(C)C(=O)CC[C@@H]32)C1 [U18666A],clearance of M. smegmatis,[7],Impaired clearance of M. smegmatis
same,clearance of M. smegmatis,[8],Impaired clearance of M. smegmatis
same,ability to clear non-pathogenic M. smegmatis,[9],impaired ability to clear non-pathogenic M. smegmatis
COc1cc(/C=C/C(=O)CC(=O)/C=C/c2ccc(O)c(OC)c2)ccc1O [curcumin],Ca^2+ uptake by SERCA,[10],inhibits Ca^2+ uptake
same,mycobacterial burden,[11],significantly reduced mycobacterial burden
same,BCG clearance,[1],promoted BCG clearance
same,bacterial clearance in cells loaded with the Ca^2+ chelator BAPTA,[1],abrogated
same,level of infection (average fluorescence intensity of mCherry-expressing BCG),[1],significantly lower level of infection
same,effect on cytosolic Ca^2+ levels,[2],raises cytosolic [Ca^2+ ]
"CCCCN1C[C@H](O)[C@@H](O)[C@H](O)[C@H]1CO [miglustat, N-butyldeoxynojirimycin]",neurological side effects,[3],not to cause neurological side effects
same,CNS penetration,[3],penetrate the CNS
same,duration of treatment after which the effect on GSL levels stabilizes,[12],10 days
same,onset of decrease in GSL levels,[12],measurable decrease in GSL levels within a day of treatment
same,"mycobacterial clearance, agent alone",[1],neither of these molecules alone promoted mycobacterial clearance
glucose monomycolate [GMM from non-pathogenic M. smegmatis],"Lysotracker fluorescence, NPC-like lysosomal expansion/storage",[13],minimal effects
glucose monomycolate [GMM],"Lysotracker fluorescence, NPC-like lysosomal expansion/storage",[13],only modest lysosomal expansion that did not reach statistical significance
trehalose dimycolate [TDM from M. bovis],GM1 trafficking,[14],GM1 mistrafficking
same,GSL levels,[15],GSL accumulation
same,LE/Lys Ca^2+ levels,[16],reduced LE/Lys Ca^2+ levels
trehalose dimycolate [TDM],"susceptibility of Npc1+/- macrophages (50% of wild-type NPC1 protein) to inhibition by TDM, versus wild-type",[17],more susceptible to inhibition
same,"Lysotracker fluorescence, NPC-like lysosomal expansion/storage",[13],greatest increase in Lysotracker fluorescence
trehalose monomycolate [TMM],"Lysotracker fluorescence, NPC-like lysosomal expansion/storage",[13],only modest lysosomal expansion that did not reach statistical significance
